Results taken from US8088567B2, “Human immortalised neural precursor cell line” (NsGene A/S, priority 2005, dated 2012).
“Also recorded” adds a separate entry of the source.

Tests used:
NGC-407 wt cells = test: Cell killing effect of AZT, XTT viability assay, parental cells; assay type: cell-based, human; conditions: parental NGC-407 cell line, 120 hours drug exposure
Method: Cell culture The human neuronal progenitor cell line NGC-407 was cultured in DMEM/F12 (Gibco #31331-028) conditioned with Human Serum Albunim (HSA) (Sigma #A 1653), N2 (Gibco #17502-048), B27 (Gibco #17504-044), Glucose (Sigma #G8769), bFGF (R&D Systems #233-FB), EGF (R& Systems #236-EG), MEM NEAA, x100 (Gibco #11140-035), HEPES (Gibco #15630-056), in poly-L-lysine (Sigma #P4832) coated flasks/Plates (CM-Lab, Denmark). Cells were grown at 37° C. and 5% CO2 in a humidified incubator.
(§1) Exponentially growing NGC-407 wt and tomato kinase (ZG561) expressing cells were plated at a density of 5.000 cells/well in poly-L-lysine coated 96-well plates in 100 μl conditioned medium and incubated 37° C. in a humidified incubator with a gas phase of 5% CO2. After 48 hours, medium was replaced with medium containing varying concentrations of AZT starting at 20 mM and down. […] The chemo resistance of cultured cells was monitored by the surviving cell fraction as a function of the drug concentration. Viability of cells was determined via the colorimetric XTT assay (XTT kit II-Roche, cat no. 1465015). […] The absorbance at 450 and 690 nm was determined using an ELISA plate reader (Ascent, ThermoLab). The IC50 value (50% inhibition concentration) of the investigated compound was calculated as the mean value of each experiment using SigmaPlot® (Dyrberg Trading, DK).

[1] = test system: tomato kinase (ZG561) expressing NGC-407 cells; test: Cell killing effect of AZT, XTT viability assay, tomato kinase expressing cells; assay type: cell-based, human
Method: The constructed pLHCXZ (Clontech) plasmid vector pZG561 (coding for a Tomato Thymidine kinase I with a C-terminal deletion of 26 amino acids, WO 03/100045) and pVPack-GP (Stratagene) plus pVPack-VSV-G (Stratagene) were transfected into the packaging cells using LipofectAMINE PLUS (Invitrogen-Life Technologies, Inc.) according to the protocol provided by the supplier. The medium from the transfected cells, cultured in DMEM (Invitrogen), was collected 48 and 72 hours post transfection, filtered through a 0.45 μm filter, pelleted by ultracentrifugation (50.000g, 90 min at 4° C.) and dissolved in DMEM (Invitrogen). The titer of the virus was determined by reverse transcriptase assay. […]
The day before transduction, 1×10^6 cells/well were seeded in 6-well plates. […] Subsequently cells were ready for experiments.
as §1, with “CO2.” for “CO2. After 48 hours, medium was replaced with medium containing varying concentrations of AZT starting at 20 mM and down.”, “The IC50 value (50% inhibition concentration) of the investigated compound was calculated as the mean value of each experiment using SigmaPlot® (Dyrberg Trading, DK).” left out

U87MG xenograft tumor = test: In vivo migration of GFP-expressing NGC-407 cells in nude rat model of human glioblastoma multiforme; set-up: species or system nude rats; conditions: PB 250 mg/kg intraperitoneally twice daily, 2 weeks
Method: 8-9 weeks old athymic nude male rats (rnu/rnu; Harlan, Germany) with an average weight of 200 g were used in our human glioblastoma multiforme xenograft model. They were housed in a group of 3 in standardized big cages in 50-70% relative humidity and 20°-24° C. temperature with 12/12 day/night variation. Food (Ad libitum), water and other materials used for these immunocompromised animals were autoclaved before use. Animals were anesthesitized by isoflurane inhalation and the head was fixed in a stereo tactic apparatus. Under microscopic guidance a burr hole of 1 mm diameter was made over the right hemisphere, 2 mm right lateral to the bregma. Using a Hamilton syringe of 5 μl volume 1.5×10^5 U87MG cells in 3 μl volume were slowly injected through the burr hole at a depth of 3.5 mm from the surface to reach the corpus callosum.
2×10^6 neural progenitors (NGC-407) recombinantly expressing green fluorescent protein (GFP), were plated in a 100 mm Petri dish and were grown as neurospheres for 48 hours. […]
Histopathological analysis of the sections was carried out by haematoxylin and eosin staining to determine the size and location of the implants. […] Immunohistochemically the tumor location was determined by correlating with the histological analysis and by the cell density while the sections were counter-stained with hoechst.

[2] = test system: NGC-407 cells and U87 gioblastoma cells; test: Gap junction communication by fluorescent dye transfer, NGC-407 and U87; assay type: cell-based, human; conditions: differentiating and proliferating conditions
Method: (§2) This was analyzed semi-quantitatively/qualitatively by using fluorescent dye transfer techniques. It is evident that the GJC is enhanced by 4-PB both under differentiating and proliferating conditions in vitro. This is relevant since the in vivo environment may present transplanted cells with conditions that stimulate neither differentiation nor proliferation.

[3] = test system: NGC-407 & U343MGa-cl 2:6 cells; test: Gap junction communication by calcein dye transfer, NGC-407 to U343MGa-cl 2:6; assay type: cell-based, human; conditions: PB 0.5 mM donor, 4 mM recipient for 72 hours, 4 hours co-culture at 0.5 mM
Method: Donor human embryonic neural stem cells (NGC-407) and recipient human glioblastoma cells (U343MGa-cl 2:6) were grown each in 2 separate 35 mm Petri dishes (1×10^5/dish). For NGC-407 cells the plates were poly-L-lysine (Sigma) coated and the medium was DMEM/F12 1:1 with glutamax I (Invitrogen) containing 40 ng/ml bFGF2 (R&D Systems), 20 ng/ml rhEGF, 1× N2 supplement, 1× non-essential amino acid, 5 mM HEPES buffer solution (from Invitrogen), 0.5% human serum albumin and 6 g/L D-glucose (from Sigma). The recipient cells were grown in DMEM containing 10% FBS, 100 units/ml penicillin and 100 μg/ml streptomycin (from Invitrogen). When the cells were approx. 60% confluent, treatment with 0 & 0.5 mM 4-Phenyl Butyrate (PB) for donor cells and 0 & 4 mM PB for recipient cells was started and continued for 72 hours. The donor cells were then double labelled by incubating with 1 ml of cell medium containing 10 μM Dil and 5 μM Calcein-AM (Molecular Probes) for 20 min. After aspiration of the dye containing medium the cells were washed 4-5 times with pure medium and then with PBS to get rid of free dye. After a very brief trypsinization the cells were centrifuged and resuspended in co-culture medium (donor cell medium including 0.5% FBS). The medium of recipient cells was replaced by co-culture medium and 5×10^4 donor cells were added to one recipient plate. […]

NGC-407 cells = test: Gap junction communication by fluorescent dye transfer between NGC-407 cells; assay type: cell-based, human; conditions: differentiating and proliferating conditions
Method: as §2

transfected cell line = conditions: cited from earlier work

Cc1cn([C@H]2C[C@H](N=[N+]=[N-])[C@@H](CO)O2)c(=O)[nH]c1=O [AZT]
IC50 (NGC-407 wt cells): 11.8 mM
IC50 ([1]; Hygromycin selected ZG561 (tomato TK) NGC-407 cells, 120 hours drug exposure, XTT): 0.051 mM
Sensitisation of NGC-407 cells towards AZT by Tomato Thymidine kinase ([1]; ZG561 cells versus parental cells): 230 fold

O=C(O)CCCc1ccccc1 [4-PB, 4-Phenyl Butyrate]
GFP staining / GFP positive cells around and inside the tumor (U87MG xenograft tumor): enhanced the GFP staining; also recorded: increases the number of GFP positive cells
gap junction communication (GJC) between NGC-407 cells and U87 gioblastoma cells [2]: enhances the gap junction communication
gap junction communication NGC-407 to U343MGa-cl 2:6 (calcein transfer) [3]: significantly enhanced
gap junction communication NGC-407 to U343MGa-cl 2:6 (calcein transfer) ([3]; listed as PB): number of green recipient cells has also been significantly increased
gap junction communication (GJC) between NGC-407 cells (NGC-407 cells): enhances the gap junction communication

B1: B5: mutant Drosophila melanogaster deoxyribonucleoside kinase variant, SEQ ID NO 5 (protein)
chain: MAEAASCARKGTKYAEGTQPFTVLIEGNIGSGKTTYLNHFEKYKNDICLLTEPVEKWRNVNGVNLLELMYKDPKKWAMPFQSYATLTMLQSHTAPTNKKLKIMERSIFSARYCFVENMRRNGSLEQGMYNTLEEWYKFIEESIHVQADLIIYLRTSPEVAYERIRQRARSEESCVPLKYLQELHELHEDWLIHQRRPQSCKVLVLDADLDLENIGTEYQRSESSIFDAISSNQQPSPVPVSPSKRQRVAR
modifications: Drosophila melanogaster
degree of activation for gemcitabine relative to wild type Dm dNK (transfected cell line): approximately 50 times
